# In patent US6413521B1, “Helminth parasite antigen with aminopeptidase-like activity” (The Barbraham Institute, priority 1993, dated 2002):
# Non-standard residues stand in square brackets, D forms with d. Residues, ends and D or L forms follow the SMILES beside them. *: point of attachment. Sta = CC(C)C[C@H](N)[C@@H](O)CC(=O)O; Isovaleryl = CC(C)CC(=O)*
# Experiments:
# Con A Oo12 ApM activity = test: Con A O12 aminopeptidase inhibition assay, ApM (leucine p-nitroanilide); type: biochemical, Ostertagia ostertagi
# Protocol: (§1) The effect of various protease inhibitors on Oo12 activity was assayed and included amastatin (aminopeptidase inhibitor), actinonin (aminopeptidase inhibitor), bestatin (aminopeptidase inhibitor), EDTA (metallo-protease inhibitor), E64 (cysteine protease inhibitor), pepstatin (aspartic protease inhibitor), 1,10 phenanthroline (metallo-protease inhibitor) and 3,4-dichloroisocoumarin (DCI, serine protease inhibitor). 10 μl Con A Oo12 and 100 μl 50 mM Mops buffer, pH 7.0 was added to a microtitre plate well and 2-4 μl of enzyme inhibitor added, to give a final concentration of 0.5 mM and 1 mM actinonin, 50 μM and 100 μM bestatin, 1 mM and 15 mM EDTA, 50 μM and 100 μM E64, 10 and 50 μM pepstatin, 1 mM and 10 mM 1,10 phenanthroline, 100 μM and 500 μM DCI. The plate was preincubated at 37° C. for 20-28 minutes and then assayed for ApM and ApA activity. 100 μl 2 mM leucine p-nitroanilide (ApM) or α-glutamic p-nitroanilide (ApA)/Mops was added per well and the optical density (OD) at 405 nm read using an Elisa plate reader. The plates were incubated at 37° C. for 45-48 minutes and the final OD reading was then taken. The OD change per minute per 10 μl sample was calculated. All assays were carried out in triplicate.
# Con A Oo12 ApA activity = test: Con A O12 aminopeptidase inhibition assay, ApA (α-glutamic p-nitroanilide); type: biochemical, Ostertagia ostertagi
# Protocol: as §1
SMILES,Leu-pNA enzyme activity (Con A Oo12 ApM activity; inhibitor 50 μM) [nmoles/min/10 μl ConA O12],Leu-pNA enzyme inhibition (Con A Oo12 ApM activity; inhibitor 50 μM),Leu-pNA enzyme activity (Con A Oo12 ApM activity; inhibitor 100 μM) [nmoles/min/10 μl ConA O12],Leu-pNA enzyme inhibition (Con A Oo12 ApM activity; inhibitor 100 μM),α-Glu-pNA enzyme activity (Con A Oo12 ApA activity; inhibitor 50 μM) [nmoles/min/10 μl ConA O12],α-Glu-pNA enzyme inhibition (Con A Oo12 ApA activity; inhibitor 50 μM) [%],α-Glu-pNA enzyme activity (Con A Oo12 ApA activity; inhibitor 100 μM) [nmoles/min/10 μl ConA O12],α-Glu-pNA enzyme inhibition (Con A Oo12 ApA activity; inhibitor 100 μM) [%],Leu-pNA enzyme activity (Con A Oo12 ApM activity; inhibitor 1 mM) [nmoles/min/10 μl ConA O12],Leu-pNA enzyme inhibition (Con A Oo12 ApM activity; inhibitor 1 mM) [%],α-Glu-pNA enzyme activity (Con A Oo12 ApA activity; inhibitor 1 mM) [nmoles/min/10 μl ConA O12],α-Glu-pNA enzyme inhibition (Con A Oo12 ApA activity; inhibitor 1 mM) [%],other results
CC(C)C[C@H](NC(=O)[C@H]1O[C@@H]1C(=O)O)C(=O)NCCCCN=C(N)N [E64],1.241,0 (+1%),1.278,0 (+4%),0.323,3,0.327,2,–,–,–,–,–
"CC(C)CC(=O)N[C@H](C(=O)N[C@H](C(=O)N[C@@H](CC(C)C)[C@@H](O)CC(=O)N[C@@H](C)C(=O)N[C@@H](CC(C)C)[C@@H](O)CC(=O)O)C(C)C)C(C)C [Pepstatin, pepstatin] (Isovaleryl-VV[Sta]A[Sta]-OH)",1.263,0 (+3%),–,–,0.315,6,–,–,–,–,–,–,Leu-pNA enzyme activity (Con A Oo12 ApM activity; inhibitor 10 μM): 1.297 nmoles/min/10 μl ConA O12; Leu-pNA enzyme inhibition (Con A Oo12 ApM activity; inhibitor 10 μM): 0 (+6%); α-Glu-pNA enzyme activity (Con A Oo12 ApA activity; inhibitor 10 μM): 0.326 nmoles/min/10 μl ConA O12; α-Glu-pNA enzyme inhibition (Con A Oo12 ApA activity; inhibitor 10 μM): 2%
"c1cnc2c(c1)ccc1cccnc12 [1,10 Phenanthroline, 1,10 phenanthroline]",–,–,–,–,–,–,–,–,0.005,99,0,100,inhibitory effect on aminopeptidase activity (Con A Oo12 ApM activity; 10 mM): greatest inhibition; Leu-pNA enzyme activity (Con A Oo12 ApM activity; inhibitor 10 mM): 0 nmoles/min/10 μl ConA O12; Leu-pNA enzyme inhibition (Con A Oo12 ApM activity; inhibitor 10 mM): 100%; α-Glu-pNA enzyme activity (Con A Oo12 ApA activity; inhibitor 10 mM): 0 nmoles/min/10 μl ConA O12; α-Glu-pNA enzyme inhibition (Con A Oo12 ApA activity; inhibitor 10 mM): 100%
"CC(C)C[C@H](NC(=O)[C@@H](O)[C@H](N)Cc1ccccc1)C(=O)O [Bestatin, bestatin]",0.045,96%,0.022,98%,0.174,48,0.119,64,–,–,–,–,–
O=C(O)CN(CCN(CC(=O)O)CC(=O)O)CC(=O)O [EDTA],–,–,–,–,–,–,–,–,0.994,19,0.161,52,Leu-pNA enzyme activity (Con A Oo12 ApM activity; inhibitor 15 mM): 0.784 nmoles/min/10 μl ConA O12; Leu-pNA enzyme inhibition (Con A Oo12 ApM activity; inhibitor 15 mM): 36%; α-Glu-pNA enzyme activity (Con A Oo12 ApA activity; inhibitor 15 mM): 0.112 nmoles/min/10 μl ConA O12; α-Glu-pNA enzyme inhibition (Con A Oo12 ApA activity; inhibitor 15 mM): 66%
"O=c1oc(Cl)c(Cl)c2ccccc12 [DCI, 3,4-dichloroisocoumarin]",–,–,1.229,0%,–,–,0.252,24,–,–,–,–,Leu-pNA enzyme activity (Con A Oo12 ApM activity; inhibitor 500 μM): 1.129 nmoles/min/10 μl ConA O12; Leu-pNA enzyme inhibition (Con A Oo12 ApM activity; inhibitor 500 μM): 8%; α-Glu-pNA enzyme activity (Con A Oo12 ApA activity; inhibitor 500 μM): 0.216 nmoles/min/10 μl ConA O12; α-Glu-pNA enzyme inhibition (Con A Oo12 ApA activity; inhibitor 500 μM): 35%
"CCCCC[C@H](CC(=O)NO)C(=O)N[C@H](C(=O)N1CCC[C@H]1CO)C(C)C [Actinonin, actinonin]",–,–,–,–,–,–,–,–,0.448,63,0.029,91,Leu-pNA enzyme activity (Con A Oo12 ApM activity; inhibitor 0.5 mM): 0.621 nmoles/min/10 μl ConA O12; Leu-pNA enzyme inhibition (Con A Oo12 ApM activity; inhibitor 0.5 mM): 49%; α-Glu-pNA enzyme activity (Con A Oo12 ApA activity; inhibitor 0.5 mM): 0.016 nmoles/min/10 μl ConA O12; α-Glu-pNA enzyme inhibition (Con A Oo12 ApA activity; inhibitor 0.5 mM): 95%
